Assay results from patent EP0572662B1, “SILVER HALIDE PHOTOGRAPHIC MATERIAL” (FUJI PHOTO FILM CO., LTD., priority 1991, dated 1993).

Experiment: Speed of silver telluride formation in a silver halide emulsion (Kubelka-Munk reflectivity test)
Assay type: physicochemical
Conditions: octahedral silver bromide emulsion, 50°C, pH 6.3, pAg 8.3, telluride 1 × 10^-3 mol/mol Ag, reflectivity at 520 nm
Procedure: The speed with which silver telluride is formed in the silver halide emulsion can be determined by the following test.
When a tellurium sensitizer is added in a great amount (e.g., 1 × 10^-3 mol/mol Ag), the silver telluride formed absorbs light beam of the visible region. […] 181 (1966) and ibid., Vol. 16, p. 102 (1968) can be applied for sulfur sensitizers. Therefore, the relative speed at which silver telluride is formed can easily be obtained by the same method as used in determining the amount of silver sulfide formed in a silver halide emulsion from the infinite reflectivity of the emulsion to visible light beams (520 nm) in accordance the Kubelka-Munk formula. […]
An emulsion which contains octahedral silver bromide grains having an average size of 0.5 µm (containing 0.75 mol of AgBr and 80 g of gelatin per kilogram) is maintained at 50°C, while holding pH and pAg at 6.3 and 8.3, respectively. […] Then, the reflectivity (R) of the emulsion to light beams of 520 nm is detected at times by means of a spectrophotometer having an integrating sphere, using the reflectivity of a blank emulsion as reference. Every reflectivity, thus detected, is substituted in the Kubelka-Munk formula, (1-R)^2/2R. The time spend until the value of (1-R)^2/2R becomes 0.01 is measured. The pseudo-first-order reaction rate constant k (min-1) is determined from the time thus measured. […]

SMILES	pseudo-first-order reaction rate constant k
CC(C)P(=[Te])(C(C)C)C(C)C [Compound 4, ((i)C3H7)3P = Te]	~7e-05 min⁻¹
CC(C)CP(=[Te])(CC(C)C)CC(C)C [Compound 7, ((i)C4H9)3P = Te]	~0.004 min⁻¹
